According to patent US20220023317A1, “PREVENTING OR MITIGATING CHEMOTHERAPY INDUCED ALOPECIA USING VITAMIN D” (Berg LLC, priority 2013, published 2022):

Assays:
Sprague Dawley rats [1] = assay: Neonatal rat model of CIA, 1,25(OH)2D3 in ethanol; assay type: in vivo; conditions: 0.2 μg in 150 μL ethanol topical, days 5-10; CTX 35 mg/kg; all 10 animals
Excerpt: Neonatal Rat model and PCA model. Sprague Dawley rats were purchased from Charles River Laboratories (Wilmington, Mass.). C3H/HeJ mouse were purchased from Jackson Laboratories (Bar Harbour, Me.).Rodents were housed and fed according to NIH guidelines. For experiments involving chemotherapy, cyclophosphamide was purchased from Mead Johnson (Evansville, Ind.) and Etoposide was obtained from Bristol-Myers (Evansville, Ind.). 1,25(OH)2D3 powder was a gift from Dr. Uskokovic (Hoffman-La Roche, Nutley, N.J.). For experiments involving C3H/HeJ mice, 1,25(OH)2D3 was purchased from Sigma (St. Louis, Mo.). Topical application of 1,25(OH)2D3. 1,25(OH)2D3 was dissolved in absolute ethanol and applied topically with an applicator. Control animals were similarly treated with vehicle only. […] For CIA experiments, 1,25(OH)2D3 was given daily beginning on day 5 after birth and ending on day 10. […] For CIA and PCA, the experimental group was treated with 0.2 μg of 1,25(OH)2D3 in 150 μL of absolute ethanol applied topically over the head and neck. In both instances, the control group received ethanol vehicle only. Cyclophosphamide (35 mg/kg) was given intraperitoneally for one day only. […] Both chemotherapies were started at 11 days of age. Alopecia was recorded on the tenth day after the first dose of chemotherapy.

Long Evans Rats = assay: Alopecia in chloroleukemic Long Evans rats receiving multi-course chemotherapy; assay type: in vivo, rat; conditions: for extent of alopecia (grade): all rats
Excerpt: Animals were then randomized in four groups.
Treatments were started on day 6 after birth.
Unused preparations were disposed of.

MIAC51 = assay: Cure / survival rate of chloroleukemic rats after chemotherapy; assay type: in vivo, rat; conditions: for Cured (number of rats): of 40
Description: On day 5 after birth all rats received 1×105 MIAC51 intraperitoneally in 0.1 mL of serum free (SF) RPMI. MIAC51 were cultured in RPMI 1640 supplemented with L-glutamine and 10% fetal bovine serum at […] in a 5% CO2, 100% humidity incubator. Cells were grown to 50% confluency (1.5×106 mL) collected in 50 mL conical tubes, centrifuged at 600 g for 10 minutes at room temperature and resuspended in SF-RPMI at a concentration of 1×10^6/mL prior to injection.

SKMEL-28 = assay: Cell growth / viability assay; assay type: cell-based
[2] = system: EMT-6 murine breast tumor; conditions: male mice, topical calcitriol before i.p. cyclophosphamide; cited from earlier work
HEKa cells = assay: 2-D gel electrophoresis proteomic analysis of calcitriol-treated HEKa; assay type: cell-based, human; conditions: 0.1 μg/mL
Description: The cell pellets were then analyzed using proteomic methods, such as 2-D gel and Western blot analysis. […] In all, analysis of about 458 protein spots in the comparative study was performed, comparing the control sample against the 3-, 6-, and 24-hour treatment samples. Six spots showing statistically significant differential changes were identified. These spots were excised, and their protein contents subjected to sequence identification by trypsin digestion and mass spectrometry characterization.

MCF-7 = assay: Cell growth / viability assay; assay type: cell-based
[3] = Preliminary animal toxicology study; assay type: in vivo; conditions: dose of about 100 μg
[4] = system: squamous cell carcinoma and human prostate cell carcinoma; conditions: 2.5 μg calcitriol 3 doses daily for 3 days, followed by paclitaxel; cited from earlier work
C57BL/6 mice = conditions: topical calcitriol; cited from earlier work
Sprague Dawley rats [5] = assay: PCA model, hair regrowth in alopecic rats; assay type: in vivo, rat; conditions: 0.2 μg topical days 22-35, rats alopecic from cyclophosphamide or etoposide; controls day 42
Description: Topical application of 1,25(OH)2D3. 1,25(OH)2D3 was dissolved in absolute ethanol and applied topically with an applicator. Control animals were similarly treated with vehicle only. […] For CIA experiments, 1,25(OH)2D3 was given daily beginning on day 5 after birth and ending on day 10. […] For CIA and PCA, the experimental group was treated with 0.2 μg of 1,25(OH)2D3 in 150 μL of absolute ethanol applied topically over the head and neck. In both instances, the control group received ethanol vehicle only. Cyclophosphamide (35 mg/kg) was given intraperitoneally for one day only. […] Both chemotherapies were started at 11 days of age. Alopecia was recorded on the tenth day after the first dose of chemotherapy. […] Rats were randomized into two groups of ten rats each. One group received vehicle control, while the other received 0.2 μg 1,25(OH)2D3. […] Animals were observed until complete hair regrowth was obtained.

[6] = ADM + paclitaxel + etoposide, after two rounds
[7] = CTX + ADM + ARA-C, after two rounds
[8] = CTX + paclitaxel + etoposide, after two rounds
[9] = CTX, after two rounds of chemotherapy

## C=C1/C(=C\C=C2/CCC[C@]3(C)[C@@H]([C@H](C)CCCC(C)(C)O)CC[C@@H]23)C[C@@H](O)C[C@@H]1O [Calcitriol, (1a.3B.5Z.7E)-9,10-secocholesta-5,7,10(19)-triene-1,3,25-triol]
Sprague Dawley rats [1]
  protection from cyclophosphamide-induced alopecia: did not develop alopecia
Long Evans Rats; ADM + paclitaxel + etoposide, first round
  extent of alopecia (grade): did not exhibit any signs of alopecia
Long Evans Rats; ADM + paclitaxel + etoposide, second round, topical calcitriol, of 32
  rats with alopecia grade 0 (number): 32
Long Evans Rats; CTX + ADM + ARA-C, first round
  extent of alopecia (grade): did not exhibit any signs of alopecia
Long Evans Rats; CTX + ADM + ARA-C, second round, topical calcitriol, of 31
  rats with alopecia grade 0 (number): 31
Long Evans Rats; CTX + ADM + cytarabine (ARA-C), first round, topical calcitriol 2 μg/mL, of 40
  rats with alopecia grade 0 (number): 40
Long Evans Rats; CTX + ADM, first round
  extent of alopecia (grade): did not exhibit any signs of alopecia
Long Evans Rats; CTX + ADM, second round, topical calcitriol, of 20
  rats with alopecia grade 0 (number): 20
Long Evans Rats; CTX + doxorubicin (ADM), first round, topical calcitriol 2 μg/mL, of 40
  rats with alopecia grade 0 (number): 40
Long Evans Rats; CTX + paclitaxel + etoposide, first round
  extent of alopecia (grade): did not exhibit any signs of alopecia
Long Evans Rats; CTX + paclitaxel + etoposide, first round, topical calcitriol 2 μg/mL, of 40
  rats with alopecia grade 0 (number): 40
Long Evans Rats; CTX + paclitaxel + etoposide, second round, topical calcitriol, of 33
  rats with alopecia grade 0 (number): 33
Long Evans Rats; CTX, first round of chemotherapy
  extent of alopecia (grade): did not exhibit any signs of alopecia
Long Evans Rats; CTX, first round of chemotherapy, topical calcitriol 2 μg/mL 0.1 mL daily x6, 0 = no alopecia, of 40
  rats with alopecia grade 0 (number): 40
Long Evans Rats; CTX, second round of chemotherapy, topical calcitriol days 40-45, of 10
  rats with alopecia grade 0 (number): 10
Long Evans Rats; Doxorubicin (ADM) + paclitaxel + etoposide, first round, topical calcitriol 2 μg/mL, of 40
  rats with alopecia grade 0 (number): 40
Long Evans Rats; calcitriol 2 μg/mL, each of five chemotherapy regimens, first and second cycles
  protection from CIA: 100%
Long Evans Rats; cyclophosphamide and doxorubicin group, both cycles
  protection from CIA: 100%
Long Evans Rats; cyclophosphamide group, both cycles
  protection from CIA: 100%
Long Evans Rats; cyclophosphamide, doxorubicin and cytarabine group, both cycles
  protection from CIA: 100%
Long Evans Rats; cyclophosphamide, paclitaxel and etoposide group, both cycles
  protection from CIA: 100%
Long Evans Rats; doxorubicin, paclitaxel and etoposide group, both cycles
  protection from CIA: 100%
MIAC51; [6]
  % cured / survival rate: 80%
  Cured (number of rats): 32
MIAC51; [7]
  % cured / survival rate: 78%
  Cured (number of rats): 31
MIAC51; CTX + ADM, after two rounds
  % cured / survival rate: 50%
  Cured (number of rats): 20
MIAC51; [8]
  % cured / survival rate: 83%
  Cured (number of rats): 33
MIAC51; [9]
  % cured / survival rate: 25%
  Cured (number of rats): 10
MIAC51; calcitriol 2 μg/mL
  effect on efficacy of the chemotherapy agents: did not affect the efficacy of the chemotherapy agents
SKMEL-28
  effect of calcitriol on cell growth: no significant growth promoting or growth inhibiting effects
  effect of calcitriol on cytotoxic effect of Doxorubicin: did not appear to appreciably alter
SKMEL-28; 0.1 μg/mL calcitriol supplement
  5-FU ED50 curve with vs without calcitriol: not significantly different
[2]
  rate of tumor growth vs either agent alone: greater reduction in the rate of tumor growth
HEKa cells; full cell: down at 6 and 24 hours
  S100 A9 (Calprotectin) Response: down at 6
HEKa cells; full cell: down at 24 hours
  Keratin 17 Response: down at
HEKa cells; full cell: up at 3, 6, and 24 hours
  Glutathione S-transferase (GST) Response: up at 3, 6,
MCF-7
  effect of calcitriol on cytotoxic effect of Doxorubicin: did not appear to appreciably alter
MCF-7; 0.1 μg/mL calcitriol for two passages
  response to doxorubicin, cisplatin, erlotinib after calcitriol exposure: did not alter
MCF-7; high concentrations
  concentrations giving growth inhibition: > 0.5 µg/mL
MCF-7; low concentrations
  concentrations giving growth stimulation: 0.05 to 0.25 µg/mL
[3]
  dermal irritation: no dermal irritation
  skin penetration: excellent epidermal penetration without substantial dermal penetration
[4]
  tumor response: significant tumor regression
C57BL/6 mice
  follicular apoptosis induced by cyclophosphamide: significantly diminish the degree of follicular apoptosis
Sprague Dawley rats [5]
  day of total body hair regrowth: 50 days
